Experimental data as given in patent US20250223268A1, “4-Methylsulfonylbenzamide Compound, Preparation Method, Herbicidal Composition And Use” (Jiangsu Flag Chemical Industry Co., Ltd., priority 2022, published 2025).

Tests used:
Type in all cases: in vivo
Zea mays = experiment: Greenhouse herbicidal activity and crop safety comparison (Test Example 2)
Summary of the method: (§1)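 Fresh weight inhibition, banded into grades A to E (E <20%), was rated 14-21 days after foliar spraying of 3-6 leaf plants, or 14-30 days after a soil spray applied 24 h post-sowing.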

[1] = tested on: Oryza sativa subsp. indica; experiment: as above
Summary of the method: as §1

[2] = tested on: Oryza sativa subsp. japonica; experiment: as above
Summary of the method: as §1

Echinochloa crusgalli [3] = experiment: as above; conditions: for inhibition at 75 g/ha / inhibition at 150 g/ha: Echinochloa crus-galli, read-out: Echinochloa crusgalli, control efficacy grading (fresh weight inhibition rate)
Summary of the method: as §1

Digitaria sanguinalis [4] = experiment: as above; conditions: for inhibition at 75 g/ha / inhibition at 150 g/ha: Digitaria sanguinalis, read-out: Digitaria sanguinalis, control efficacy grading (fresh weight inhibition rate); for inhibition at 75 g/ha: Rate 75 g/ha; for inhibition at 150 g/ha / Digitaria sanguinalis, control efficacy grading (fresh weight inhibition rate): Rate 150 g/ha
Summary of the method: as §1

Cyperus iria = experiment: Greenhouse herbicidal activity assay, post-emergence; conditions: Post-emergence test, rate 150 g a.i./hm^2, grade by fresh weight inhibition rate
Summary of the method: (§2)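 Foliar spray at 3-6 leaves; pot-grown in nutrient soil in growth chamber; air-dried post-spray. Read-out at 14-21 d: fresh weight inhibition, graded A (≥80% to 100%) down to E (<20%); NT = not tested.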

Leptochloa chinensis = experiment: as above; conditions: Post-emergence test, rate 150 g a.i./hm^2, grade by fresh weight inhibition rate
Summary of the method: as §2

Echinochloa crusgalli [5] = experiment: as above; conditions: Post-emergence test, rate 150 g a.i./hm^2, grade by fresh weight inhibition rate
Summary of the method: as §2

Eclipta prostrata = experiment: as above; conditions: Post-emergence test, rate 150 g a.i./hm^2, grade by fresh weight inhibition rate
Summary of the method: as §2

Digitaria sanguinalis [6] = experiment: as above; conditions: Post-emergence test, rate 150 g a.i./hm^2, grade by fresh weight inhibition rate
Summary of the method: as §2

Compound: Cn1ncnc1NC(=O)c1ccc(S(C)(=O)=O)c(S(C)(=O)=O)c1Cl [CK3, reference compound]
- Zea mays, grading of fresh weight inhibition rate (crop safety) (Zea mays; Rate 75 g/ha): E (Fresh weight inhibition rate<20%)
- Zea mays, grading of fresh weight inhibition rate (crop safety) (Zea mays; Rate 150 g/ha): D (Fresh weight inhibition rate≥20% to <40%)
- Oryza sativa subsp. indica, grading of fresh weight inhibition rate (crop safety) ([1]; Rate 75 g/ha): D (Fresh weight inhibition rate≥20% to <40%)
- Oryza sativa subsp. indica, grading of fresh weight inhibition rate (crop safety) ([1]; Rate 150 g/ha): B (Fresh weight inhibition rate≥260% to <80%)
- Oryza sativa subsp. japonica, grading of fresh weight inhibition rate (crop safety) ([2]; Rate 75 g/ha): D (Fresh weight inhibition rate≥20% to <40%)
- Oryza sativa subsp. japonica, grading of fresh weight inhibition rate (crop safety) ([2]; Rate 150 g/ha): C (Fresh weight inhibition rate≥40% to <60%)
- inhibition at 75 g/ha (Echinochloa crusgalli [3]; Rate 75 g/ha): 40 to 60%
- inhibition at 150 g/ha (Echinochloa crusgalli [3]; Rate 150 g/ha): 80 to 100%
- inhibition at 75 g/ha (Digitaria sanguinalis [4]): < 20%
- inhibition at 150 g/ha (Digitaria sanguinalis [4]): 20 to 40%

Compound: CCS(=O)(=O)c1c(S(C)(=O)=O)ccc(C(=O)Nc2ncnn2C)c1Cl [CK4, reference compound]
- Zea mays, grading of fresh weight inhibition rate (crop safety) (Zea mays; Rate 75 g/ha): E (Fresh weight inhibition rate<20%)
- Zea mays, grading of fresh weight inhibition rate (crop safety) (Zea mays; Rate 150 g/ha): D (Fresh weight inhibition rate≥20% to <40%)
- Oryza sativa subsp. indica, grading of fresh weight inhibition rate (crop safety) ([1]; Rate 75 g/ha): C (Fresh weight inhibition rate≥40% to <60%)
- Oryza sativa subsp. indica, grading of fresh weight inhibition rate (crop safety) ([1]; Rate 150 g/ha): B (Fresh weight inhibition rate≥260% to <80%)
- Oryza sativa subsp. japonica, grading of fresh weight inhibition rate (crop safety) ([2]; Rate 75 g/ha): C (Fresh weight inhibition rate≥40% to <60%)
- Oryza sativa subsp. japonica, grading of fresh weight inhibition rate (crop safety) ([2]; Rate 150 g/ha): C (Fresh weight inhibition rate≥40% to <60%)
- inhibition at 75 g/ha (Echinochloa crusgalli [3]; Rate 75 g/ha): 40 to 60%
- inhibition at 75 g/ha (Digitaria sanguinalis [4]): 20 to 40%
- inhibition at 150 g/ha (Digitaria sanguinalis [4]): 40 to 60%

Compound: CC(C)S(=O)(=O)c1c(S(C)(=O)=O)ccc(C(=O)Nc2ncnn2C)c1Cl [Compound 2-10, 2-chloro-3-(isopropylsulfonyl)-N-(1-methyl-H-1,2,4-triazol-5-yl)-4-(methylsulfonyl)benzamide]
- Zea mays, grading of fresh weight inhibition rate (crop safety) (Zea mays; Rate 75 g/ha): E (Fresh weight inhibition rate<20%)
- Zea mays, grading of fresh weight inhibition rate (crop safety) (Zea mays; Rate 150 g/ha): E (Fresh weight inhibition rate<20%)
- Oryza sativa subsp. indica, grading of fresh weight inhibition rate (crop safety) ([1]; Rate 75 g/ha): E (Fresh weight inhibition rate<20%)
- Oryza sativa subsp. indica, grading of fresh weight inhibition rate (crop safety) ([1]; Rate 150 g/ha): E (Fresh weight inhibition rate<20%)
- Oryza sativa subsp. japonica, grading of fresh weight inhibition rate (crop safety) ([2]; Rate 75 g/ha): E (Fresh weight inhibition rate<20%)
- Oryza sativa subsp. japonica, grading of fresh weight inhibition rate (crop safety) ([2]; Rate 150 g/ha): E (Fresh weight inhibition rate<20%)
- inhibition at 75 g/ha (Echinochloa crusgalli [3]; Rate 75 g/ha): 80 to 100%
- inhibition at 150 g/ha (Echinochloa crusgalli [3]; Rate 150 g/ha): 80 to 100%
- inhibition at 75 g/ha (Digitaria sanguinalis [4]): 80 to 100%
- inhibition at 150 g/ha (Digitaria sanguinalis [4]): 80 to 100%
- pest or weed control at 150 g/ha (Cyperus iria; Cyperus iria, read-out: Control efficacy grade, Cyperus iria): 80 to 100%
- pest or weed control at 150 g/ha (Leptochloa chinensis; Dinebra chinensis, read-out: Control efficacy grade, Leptochloa chinensis): 80 to 100%
- pest or weed control at 150 g/ha (Echinochloa crusgalli [5]; Echinochloa crus-galli, read-out: Control efficacy grade, Echinochloa crusgalli): 80 to 100%
- pest or weed control at 150 g/ha (Eclipta prostrata; Eclipta prostrata, read-out: Control efficacy grade, Eclipta prostrata): 80 to 100%
- pest or weed control at 150 g/ha (Digitaria sanguinalis [6]; Digitaria sanguinalis, read-out: Control efficacy grade, Digitaria sanguinalis): 80 to 100%

Compound: Cn1ncnc1NC(=O)c1ccc(S(C)(=O)=O)c(S(=O)(=O)C2CCC2)c1Cl [Compound 2-41]
- Zea mays, grading of fresh weight inhibition rate (crop safety) (Zea mays; Rate 75 g/ha): E (Fresh weight inhibition rate<20%)
- Zea mays, grading of fresh weight inhibition rate (crop safety) (Zea mays; Rate 150 g/ha): E (Fresh weight inhibition rate<20%)
- Oryza sativa subsp. indica, grading of fresh weight inhibition rate (crop safety) ([1]; Rate 75 g/ha): E (Fresh weight inhibition rate<20%)
- Oryza sativa subsp. indica, grading of fresh weight inhibition rate (crop safety) ([1]; Rate 150 g/ha): E (Fresh weight inhibition rate<20%)
- Oryza sativa subsp. japonica, grading of fresh weight inhibition rate (crop safety) ([2]; Rate 75 g/ha): E (Fresh weight inhibition rate<20%)
- Oryza sativa subsp. japonica, grading of fresh weight inhibition rate (crop safety) ([2]; Rate 150 g/ha): E (Fresh weight inhibition rate<20%)
- Echinochloa crusgalli, control efficacy grading (fresh weight inhibition rate) (Echinochloa crusgalli [3]; Rate 75 g/ha): A (Fresh weight inhibition rate≥80% to 100%)
- Echinochloa crusgalli, control efficacy grading (fresh weight inhibition rate) (Echinochloa crusgalli [3]; Rate 150 g/ha): A (Fresh weight inhibition rate≥80% to 100%)
- Digitaria sanguinalis, control efficacy grading (fresh weight inhibition rate) (Digitaria sanguinalis [4]): A (Fresh weight inhibition rate≥80% to 100%)
- Control efficacy grade, Cyperus iria (Cyperus iria): A (Fresh weight inhibition rate≥80% to 100%)
- Control efficacy grade, Echinochloa crusgalli (Echinochloa crusgalli [5]): A (Fresh weight inhibition rate≥80% to 100%)
- Control efficacy grade, Eclipta prostrata (Eclipta prostrata): A (Fresh weight inhibition rate≥80% to 100%)
- Control efficacy grade, Digitaria sanguinalis (Digitaria sanguinalis [6]): A (Fresh weight inhibition rate≥80% to 100%)

Compound: Cn1ncnc1NC(=O)c1ccc(S(C)(=O)=O)c(S(=O)(=O)C2CCCC2)c1Cl [Compound 2-46]
- Zea mays, grading of fresh weight inhibition rate (crop safety) (Zea mays; Rate 75 g/ha): E (Fresh weight inhibition rate<20%)
- Zea mays, grading of fresh weight inhibition rate (crop safety) (Zea mays; Rate 150 g/ha): E (Fresh weight inhibition rate<20%)
- Oryza sativa subsp. indica, grading of fresh weight inhibition rate (crop safety) ([1]; Rate 75 g/ha): E (Fresh weight inhibition rate<20%)
- Oryza sativa subsp. indica, grading of fresh weight inhibition rate (crop safety) ([1]; Rate 150 g/ha): E (Fresh weight inhibition rate<20%)
- Oryza sativa subsp. japonica, grading of fresh weight inhibition rate (crop safety) ([2]; Rate 75 g/ha): E (Fresh weight inhibition rate<20%)
- Oryza sativa subsp. japonica, grading of fresh weight inhibition rate (crop safety) ([2]; Rate 150 g/ha): E (Fresh weight inhibition rate<20%)
- Echinochloa crusgalli, control efficacy grading (fresh weight inhibition rate) (Echinochloa crusgalli [3]; Rate 75 g/ha): A (Fresh weight inhibition rate≥80% to 100%)
- Echinochloa crusgalli, control efficacy grading (fresh weight inhibition rate) (Echinochloa crusgalli [3]; Rate 150 g/ha): A (Fresh weight inhibition rate≥80% to 100%)
- Digitaria sanguinalis, control efficacy grading (fresh weight inhibition rate) (Digitaria sanguinalis [4]): A (Fresh weight inhibition rate≥80% to 100%)
- Control efficacy grade, Cyperus iria (Cyperus iria): A (Fresh weight inhibition rate≥80% to 100%)
- Control efficacy grade, Leptochloa chinensis (Leptochloa chinensis): A (Fresh weight inhibition rate≥80% to 100%)
- Control efficacy grade, Echinochloa crusgalli (Echinochloa crusgalli [5]): A (Fresh weight inhibition rate≥80% to 100%)
- Control efficacy grade, Eclipta prostrata (Eclipta prostrata): A (Fresh weight inhibition rate≥80% to 100%)
- Control efficacy grade, Digitaria sanguinalis (Digitaria sanguinalis [6]): A (Fresh weight inhibition rate≥80% to 100%)
